{"source": "patent US4540709A", "about": "“Method for treatment of diseases mediated by PAF using 5-allyl-2-(3,4-Dimethoxyphenyl)-3a,α-methoxy-3-methyl-2,3,3a,6-tet rahydro-6-oxobenzofuran” (Merck & Co., Inc., priority 1983, dated 1985)", "key": {"guinea pig ileum": {"system": "guinea pig ileum", "assay": "Histamine-induced ileum contraction in guinea pigs"}, "[1]": {"molecular_target": "T1, PAF specific receptor binding site on rabbit platelet plasma membranes (Oryctolagus cuniculus, UniProt G1TEI7)", "T1 construct": "from tissue; host or cells: rabbit platelet plasma membranes", "T1 sequence (G1TEI7 1-342)": "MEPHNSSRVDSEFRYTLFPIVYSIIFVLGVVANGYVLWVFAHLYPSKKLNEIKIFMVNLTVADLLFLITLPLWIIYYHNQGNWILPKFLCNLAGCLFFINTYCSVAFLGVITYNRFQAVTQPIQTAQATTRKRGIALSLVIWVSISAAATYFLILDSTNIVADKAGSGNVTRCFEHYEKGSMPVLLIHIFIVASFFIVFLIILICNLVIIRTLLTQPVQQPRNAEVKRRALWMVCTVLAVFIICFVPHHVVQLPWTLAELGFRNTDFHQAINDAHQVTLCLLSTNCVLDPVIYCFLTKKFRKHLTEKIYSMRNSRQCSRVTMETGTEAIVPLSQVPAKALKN", "assay": "Inhibition of 3H-PAF binding to rabbit platelet plasma membrane", "conditions": "in vitro, 0° C., pH 7.5", "protocol": "In vitro, compound (I) inhibits PAF-induced functions in both the cellular and the tissue levels by disturbing the PAF binding to its specific receptor site. The ability of compound (I) to inhibit the PAF binding to its specific receptor binding site on rabbit platelet plasma membranes was measured by an assay recently developed by us.\nThe inhibition of H^3 -PAF binding to the rabbit platelet plasma membrane by compound (I) was determined by a method employing isotopic labeling and filtration techniques. Generally, a series of Tris-buffered solutions of the selected antagonist at predetermined concentrations were prepared. […] Ten […] of scintillation solution (Aquasol 2, New England Nuclear, Connecticut) was added with stirring to each filter containing the washed residue, and the radioactivity of each resulting suspension was counted in a Packard Tri-Carb 460CD Liquid Scintillation System. Defining the counts from a test sample as \"Total binding with antagonist\"; the counts from the control sample C1, as \"Total binding C1 \"; and the counts from the control sample C2 as \"non-specific binding C2 \", the percent inhibition of each test antagonist can be determined by the following equation: [formula]"}, "H1": {"system": "H1", "assay": "Binding of H1 antagonist (3H-pyrilamine) to guinea pig brain membrane"}, "[2]": {"system": "guinea pig peritoneal PMN (polymorphonuclear leukocytes)", "assay": "PAF-induced guinea pig peritoneal PMN aggregation", "format": "cell-based", "conditions": "in vitro"}, "[3]": {"system": "PAF-induced cutaneous vascular permeability", "assay": "Inhibition of PAF-induced increase of cutaneous vasopermeability, oral activity (Evans Blue)", "format": "in vivo", "conditions": "guinea pig", "source_text": "The specific PAF-antagonistic activities are further established by an in vivo assay (modified procedure of Humphrey et al., Lab. Investigation 46, 422 (1982)) following the protocol described below:\nProtocol for the evaluation of the oral activity of PAF antagonists or the inhibition of PAF-induced increase of vasopermeability by PAF-antagonists\nI. Animal species: 5 guinea pigs (400-500 g)\n0.5% (w/v) aqueous methylcellulose solution sodium nembutol\n2% Evans Blue solution: 2 g of Evans Blue in 100 ml of pH 7.5 Tris-buffer solution\nTris-Buffer solution: 150 mM NaCl and 10 mM Tris in […] of water with pH adjusted to 7.5.\n1. Weigh the guinea pigs. Label them as control, T1, T2, T3 and T4.\n2. Fast the animals overnight.\n3. Weigh the animals again after the fasting.\n4. Ground and suspend a PAF antagonist such as compound (I) with intensive sonication in 3 ml of 0.5% aqueous methylcellulose solution.\n5. Administer orally to each of the animals T1, T2, T3 and T4 an appropriate amount (in terms of mg/kg of bodyweight) of the antagonist solution from 4.), except the control animal which should receive only the 0.5% aq. methylcellulose solution.\n6. Forty minutes after the oral administration, anesthetize the animals with sodium nembutol (0.75 ml/kg i.p.).\n7. After 20 minutes or when tne anesthetics became effective, inject intracardially to each animal 2 ml/kg body weight of the 2% Evans Blue solution.\n8. Wait for 10 minutes. In the meantime, shave the backs of the guniea pigs and get ready for the PAF injection. Select two rows of 5 (a total of ten) sites on the back of each animal and designate them as sites […]\n______________________________________\nand inject intracutaneously, in duplicate 0.1 ml of a PAF solution in Tris-buffer or 0.1 ml of the Tris-buffer itself (control) according to the following schedule: […]\nSites Solution to be injected […]\n15. Measure the absorbance of each supernatant from Step (14) (\"skin sample\") as well as the plasma extract from Step (13) (\"plasma sample\") at 620 nm with a Cary 210 spectrophotometer (Varian, Palo Alto, Calif.). […]"}, "human platelets": {"system": "human platelets", "assay": "PAF-induced platelet aggregation (human platelets)", "format": "cell-based", "conditions": "in vitro"}, "guinea pig smooth muscle": {"system": "guinea pig smooth muscle", "assay": "PAF-induced guinea pig smooth muscle contraction", "conditions": "in vitro"}, "human PMN": {"system": "human PMN", "assay": "PAF-induced human PMN secretion", "format": "cell-based", "conditions": "in vitro"}, "rabbit platelets": {"system": "rabbit platelets", "assay": "PAF-induced platelet aggregation (rabbit platelets)", "format": "cell-based", "conditions": "in vitro"}}}
{"smiles": "C=CCC1=CC2(OC)C(=CC1=O)OC(c1ccc(OC)c(OC)c1)C2C", "note": "(stereo not drawn) [Compound (I), 5-allyl-2-(3,4-dimethoxyphenyl)-3a,α-methoxy-3-methyl-2,3,3a,6-tetrahydro-6-oxobenzofuran]", "values": [{"measurement": "inhibition of histamine-induced ileum contraction", "setting": "guinea pig ileum", "result": "no or only minute inhibition"}, {"measurement": "IC50", "setting": "[1]", "result": 0.174, "unit": "µM"}, {"measurement": "inhibition of binding of H1 antagonist (3H-pyrilamine)", "setting": "H1", "result": "do not inhibit"}, {"measurement": "inhibition of PAF-induced peritoneal PMN aggregation", "setting": "[2]", "result": "inhibits"}, {"measurement": "% inhibition", "setting": "[3]; 25 mg/kg P.O.", "result": 43, "unit": "%"}, {"measurement": "% inhibition", "setting": "[3]; 50 mg/kg P.O.", "result": 63, "unit": "%"}, {"measurement": "ED50", "setting": "[3]; Cavia porcellus, po, P.O.", "result": 30, "unit": "mg/kg"}, {"measurement": "inhibition of PAF-induced platelet aggregation", "setting": "human platelets", "result": "inhibits"}, {"measurement": "inhibition of PAF-induced smooth muscle contraction", "setting": "guinea pig smooth muscle", "result": "inhibits"}, {"measurement": "inhibition of PAF-induced PMN secretion", "setting": "human PMN", "result": "inhibits"}, {"measurement": "inhibition of PAF-induced platelet aggregation", "setting": "rabbit platelets", "result": "inhibits"}]}
